Test results reported in PMC7221154, “Cloning and Expression of Cockroach α7 Nicotinic Acetylcholine Receptor Subunit” (Frontiers in Physiology, 2020).

Key:
Pameα7 [1] = target: T1, Pameα7 (Periplaneta americana, UniProt A0A5P8U3L1); assay: two-electrode voltage clamp, Xenopus oocytes, agonist currents; assay type: cell-based; conditions: 10 mM, -80 mV, 0.5 μM atropine, EC50 could not be calculated, unreliable (low currents)
T1 construct: cDNA in pGEM-HEJUEL injected in Xenopus laevis oocytes; homomeric receptor (pentamer by known biology)
T1 sequence (A0A5P8U3L1 42-518): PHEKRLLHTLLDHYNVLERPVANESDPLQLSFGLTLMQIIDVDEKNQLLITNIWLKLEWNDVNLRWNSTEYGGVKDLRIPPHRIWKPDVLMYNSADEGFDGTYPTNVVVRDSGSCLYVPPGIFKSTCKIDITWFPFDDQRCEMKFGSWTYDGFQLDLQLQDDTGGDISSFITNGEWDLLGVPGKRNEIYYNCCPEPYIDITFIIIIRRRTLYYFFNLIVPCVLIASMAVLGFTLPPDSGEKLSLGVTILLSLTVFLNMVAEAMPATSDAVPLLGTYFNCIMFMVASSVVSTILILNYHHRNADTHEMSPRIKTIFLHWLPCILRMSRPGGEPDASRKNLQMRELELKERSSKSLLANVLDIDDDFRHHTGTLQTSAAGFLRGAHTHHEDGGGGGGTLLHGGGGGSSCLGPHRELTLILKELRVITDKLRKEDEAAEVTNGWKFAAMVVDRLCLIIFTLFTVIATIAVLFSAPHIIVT

Pameα7 [2] = target: T1, Pameα7; assay: as above; assay type: cell-based; conditions: cDNA-injected oocytes without RIC-3, -80 mV, 0.5 μM atropine, 20-22 °C, normalized to 10 mM nicotine, unreliable (native currents at 5 and 10 mM nicotine)

SMILES	two-electrode voltage clamp, Xenopus oocytes, agonist currents (Pameα7 [1])	EC50 (Pameα7 [2])
CC(=O)OCC[N+](C)(C)C [acetylcholine]	ACh and nicotine induced inward currents	–
CN1CCC[C@H]1c1cccnc1 [nicotine]	–	790 µM
